Test results published in ChEMBL document CHEMBL1201862, “PubChem BioAssay data set” (2004).
Active and inactive are the calls of the source.

Columns and labels:
[1] = target: T1, Adenosylmethionine-8-amino-7-oxononanoate aminotransferase (Mycobacterium tuberculosis, UniProt P9WQ81); assay: Mycobacterium tuberculosis BioA enzyme inhibitor Measured in Biochemical System Using Plate Reader - 2163-02_Inhibitor_Dose_CherryPick_Activity.; type: functional, Mycobacterium tuberculosis UT205
T1 sequence (P9WQ81 whole entry): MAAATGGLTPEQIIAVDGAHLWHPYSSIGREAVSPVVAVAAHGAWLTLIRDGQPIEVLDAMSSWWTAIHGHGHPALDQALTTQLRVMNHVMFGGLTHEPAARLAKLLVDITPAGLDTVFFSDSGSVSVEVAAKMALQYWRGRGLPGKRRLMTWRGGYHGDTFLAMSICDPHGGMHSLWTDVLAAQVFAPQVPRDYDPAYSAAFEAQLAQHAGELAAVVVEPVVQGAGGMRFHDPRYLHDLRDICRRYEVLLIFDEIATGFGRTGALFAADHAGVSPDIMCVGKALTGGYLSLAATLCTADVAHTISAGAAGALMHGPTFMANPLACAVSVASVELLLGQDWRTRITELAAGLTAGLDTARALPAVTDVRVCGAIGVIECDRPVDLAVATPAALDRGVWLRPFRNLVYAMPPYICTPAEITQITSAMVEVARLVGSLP

[2] = M. tuberculosis H37Rv growth inhibitors, H37Rv strain (AID 1626); type: functional
Paired box protein Pax-8 = Paired box protein Pax-8 (Homo sapiens, UniProt Q06710); assay: PAX8 transcriptional activity inhibition in RMG-I – RMG-I cells, luciferase, cherry-pick, dose response (AID 687027); type: functional, cell-based;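 further: luciferase reporter driven by Pax8 target thyroperoxidase promoter measured by SteadyGlo luminescence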
Paired box protein Pax-8, sequence (Q06710 whole entry): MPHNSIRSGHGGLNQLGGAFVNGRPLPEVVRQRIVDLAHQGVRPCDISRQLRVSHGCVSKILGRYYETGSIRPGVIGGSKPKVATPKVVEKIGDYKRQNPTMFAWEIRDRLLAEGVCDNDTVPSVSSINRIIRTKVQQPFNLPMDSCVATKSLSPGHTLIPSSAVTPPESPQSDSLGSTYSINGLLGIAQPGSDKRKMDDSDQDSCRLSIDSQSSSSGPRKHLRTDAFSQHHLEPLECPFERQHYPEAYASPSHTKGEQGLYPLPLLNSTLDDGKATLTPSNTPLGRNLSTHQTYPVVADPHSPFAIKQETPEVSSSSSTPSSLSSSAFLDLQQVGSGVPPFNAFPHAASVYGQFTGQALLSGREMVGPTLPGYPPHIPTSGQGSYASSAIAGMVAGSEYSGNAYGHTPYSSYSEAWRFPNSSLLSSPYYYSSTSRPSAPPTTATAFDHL

[3] = OVCAR-3 cell viability loss – plate reader, dry powder samples, PAX8 inhibitor project, dose response (AID 743044); type: functional, cell-based
[4] = IGROV1 cell killing – plate reader, dry powder samples, PAX8 inhibitor project, dose response (AID 743043); type: functional, cell-based; details: IGROV-1
[5] = general cell-killing toxicity readout – plate reader, dry powder samples, cytotoxicity control for PAX8 inhibitor project, dose response (AID 743021); type: functional, cell-based
[6] = OVCAR8 cell viability loss – plate reader, dry powder samples, PAX8 project, dose response (AID 743197); type: functional, cell-based; details: OVCAR-8
[7] = target: T2, Mannose-6-phosphate isomerase (Homo sapiens, UniProt P34949); assay: MPI inhibition at elevated mannose 6-phosphate – biochemical, fluorescence intensity, high mannose 6-phosphate, primary screen (AID 1220)
T2 sequence (P34949 whole entry): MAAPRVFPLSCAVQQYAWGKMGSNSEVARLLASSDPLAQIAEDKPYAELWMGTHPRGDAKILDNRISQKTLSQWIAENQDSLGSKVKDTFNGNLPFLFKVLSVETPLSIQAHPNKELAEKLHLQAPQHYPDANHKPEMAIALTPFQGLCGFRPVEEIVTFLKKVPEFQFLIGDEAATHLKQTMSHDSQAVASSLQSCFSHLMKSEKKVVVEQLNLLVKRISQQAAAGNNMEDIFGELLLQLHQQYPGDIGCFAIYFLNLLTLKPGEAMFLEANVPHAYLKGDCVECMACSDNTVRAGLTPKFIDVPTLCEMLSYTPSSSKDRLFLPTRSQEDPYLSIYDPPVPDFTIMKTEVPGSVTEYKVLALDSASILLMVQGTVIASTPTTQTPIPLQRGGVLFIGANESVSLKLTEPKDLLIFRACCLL

[8] = target: T3, Polyadenylate-binding protein 1 (Homo sapiens, UniProt P11940); assay: MLLE binding blockers, Cy5 peptide tracer – biochemical, fluorescence polarization, Cy5-PAM2 peptide, secondary, miRNA deadenylation inhibitor project, dose response (AID 602260); type: functional; details: read-out: IC50_Mean
T3 sequence (P11940 whole entry, the tested form may be a part): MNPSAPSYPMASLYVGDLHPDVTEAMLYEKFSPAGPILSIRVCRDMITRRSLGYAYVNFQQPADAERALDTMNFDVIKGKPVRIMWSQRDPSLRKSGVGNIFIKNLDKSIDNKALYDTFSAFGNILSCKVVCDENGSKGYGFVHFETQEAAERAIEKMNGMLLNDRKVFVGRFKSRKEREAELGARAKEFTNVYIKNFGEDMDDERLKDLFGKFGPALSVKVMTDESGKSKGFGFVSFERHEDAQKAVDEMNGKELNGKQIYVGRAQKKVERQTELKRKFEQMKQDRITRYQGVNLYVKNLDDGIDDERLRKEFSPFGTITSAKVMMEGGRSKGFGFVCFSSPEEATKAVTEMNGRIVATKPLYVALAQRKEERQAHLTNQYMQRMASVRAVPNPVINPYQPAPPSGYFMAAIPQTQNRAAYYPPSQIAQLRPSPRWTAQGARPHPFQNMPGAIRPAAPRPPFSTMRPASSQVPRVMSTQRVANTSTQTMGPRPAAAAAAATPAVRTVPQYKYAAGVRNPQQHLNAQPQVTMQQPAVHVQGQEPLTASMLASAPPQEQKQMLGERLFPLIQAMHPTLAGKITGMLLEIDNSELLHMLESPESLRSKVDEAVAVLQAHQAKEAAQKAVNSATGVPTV

[9] = target: T3, Polyadenylate-binding protein 1; assay: MLLE domain peptide-binding blockers, IC50 – biochemical, fluorescence polarization, FITC-PAM2 peptide, dose response (AID 602259); type: functional; details: read-out: IC50_Mean
[10] = luciferase reporter signal suppression in cells – H4 neuroglioma cells, luminescence, dose response (AID 1990); type: functional, cell-based
BJ [11] = assay: BJ-TERT fibroblast viability loss – cell-based, RAS-independent, luminescence, dose response (AID 1933); type: functional; details: Homo sapiens
[12] = Luminescence Cell-Based Dose Response HTS to Identify Inhibitors of 5'UTR Stem-Loop Driven Prion Protein mRNA Translation in H4 Neuroglioblastoma Cells. [Related pubchem assays: 1827 (Project Summary), 1813 (Primary HTS)]; type: functional
[13] = alpha-synuclein stem-loop luciferase translation blockers – H4 neuroglioma cells, luminescence, confirmation (AID 1988); type: functional, cell-based
BJ [14] = assay: cells; type: functional, cell-based; details: Homo sapiens
BJ [15] = assay: BJ-TERT-LT-ST fibroblast viability loss – cell-based, RAS-independent, luminescence, dose response (AID 1935); type: functional; details: Homo sapiens;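 further: BJ fibroblasts immortalized with TERT plus LT and ST oncogenes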
[16] = DRD fibroblast viability loss – cell-based, non-viral oncogenic, luminescence, dose response (AID 1934); type: functional; details: Homo sapiens
[17] = A549 cell cytotoxicity, dose response, cytotoxicity control, plate reader, cherry-pick, antagonist series (AID 743412); type: functional, cell-based
[18] = toxicity toward HepG2 liver cells – cell-based, plate reader, cherry-pick, antagonist series, cytotoxicity control, dose response (AID 743416); type: functional
[19] = blockers of bursicon-stimulated LGR2 cAMP reporter – cell-based, HEK293, CRE-luciferase reporter, cherry pick, set 2, dose response (AID 743343); type: functional;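 further: transfected cells were stimulated with diluted bursicon conditioned medium after compound addition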
[20] = blockade of melanocortin 4 receptor signaling – cell-based, plate reader, cherry pick, counter-screen for LGR2 antagonist project, dose response (AID 743444); type: functional;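 further: transfected HEK 293 cells stimulated with alpha-MSH peptide; potency of inhibitors of the alpha-MSH evoked signal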
[21] = viability loss in HEK293 cells – cell-based, plate reader, cherry-picked samples, cytotoxicity control, dose response (AID 743446); type: functional

With `CCOC(=O)c1ccc2c(c1)nc(SCc1cn3ccsc3n1)n2CC` as the molecule, how does the AC50 [1] read?
Its AC50 is 1.16 µM (active).

With `Fc1ccc(-c2ccc3c(c2)C2CC3CCN2)cc1` (stereo unspecified) as the molecule, how does the AC50 [1] read?
Its AC50 is 1.25 µM (active).

With `CCOC(=O)c1ccc(NC(=O)CCNC(=O)c2ccc([N+](=O)[O-])cc2)cc1` as the molecule, how does the IC50 [2] read?
Its IC50 is > 100 µM (active).

With `O=C(c1ccc2c(c1)OCO2)N1CC[C@@H]2[C@H](CO)Nc3ccc(-c4ccc(F)cc4)cc3[C@@H]21` as the molecule, how does the AC50 [1] read?
The AC50 was 1.4 µM (active).

Which AC50 (Paired box protein Pax-8) does the source give for `COc1ccc(NC(=O)Nc2ccc3c(c2)C(=O)N([C@H](C)CO)C[C@@H](C)[C@H](CN(C)Cc2ccc(C(F)(F)F)cc2)OCCCC[C@H](C)O3)cc1` here?
Its AC50 is 5.71 µM (active).

And the AC50 [3]?
Its AC50 is 20.5 µM (active).

And the AC50 [4]?
Its AC50 is 23 µM (active).

What about the AC50 [5] of the same molecule?
Its AC50 is 70 µM (active).

And the AC50 [6]?
The AC50 was 33.1 µM (active).

For `Nc1cccnc1Sc1cccc(Cl)c1`, which IC50 [7] is on record?
The IC50 was > 50 µM (not active).

And the IC50 [8]?
Its IC50 is > 66 µM (inactive).

And the IC50 [9]?
The IC50 was > 66 µM (inactive).

Which results are given for `CCOC(=O)c1cnc(Nc2nc3ccccc3o2)nc1C`?
EC50 [10]: 0.382 µM (active); EC50 (BJ [11]): 11.1 µM (inconclusive); EC50 [12]: 0.35 µM (active); EC50 [13]: 0.278 µM (active); EC50 (BJ [14]): 17 µM (active); EC50 (BJ [15]): > 150 µM (inconclusive); EC50 [16]: 11.7 µM (active); AC50 [17]: 16.9 µM (active); AC50 [18]: 5.13 µM (active); AC50 [19]: 1.11 µM (active); AC50 [20]: 1.56 µM (active); AC50 [21]: 51.2 µM (active)

Which results are given for `COC(=O)c1cccc(NC(=O)c2ccc(S(=O)(=O)N(C)c3ccccc3OC)cc2)c1`?
AC50 [17]: 22.7 µM (active); AC50 [18]: 28.9 µM (active); AC50 [19]: 6.56 µM (active); AC50 [20]: 7.98 µM (active); AC50 [21]: 35.8 µM (active)

With `O=C(Nc1nc2ccccc2s1)C1c2ccccc2Oc2ccccc21` as the molecule, how does the IC50 [2] read?
The IC50 was > 100 µM (active).

Which AC50 [17] does the source give for `Oc1nc2ccccc2n1C1CCN(C(CCc2ccccc2)c2nnnn2C2CCCCC2)CC1` (stereo unspecified) here?
Its AC50 is 15.8 µM (active).

And the AC50 [18]?
The AC50 was 30.6 µM (active).

And the AC50 [19]?
The AC50 was 20.3 µM (active).

What about the AC50 [20] of the same molecule?
Its AC50 is 14.1 µM (active).

And the AC50 [21]?
Its AC50 is 12.8 µM (active).

For `Nc1nc2c(s1)COc1ccccc1-2`, which IC50 [2] is on record?
The IC50 was > 100 µM (active).
